According to US9574182B2, “Monoterpene glycosyltransferase originating from hop and method for using same” (SUNTORY HOLDINGS LIMITED, priority 2012, dated 2017):
Blank lines part the entries; values can stand above or below the molecule they belong to.

Columns and labels:
Type in all cases: biochemical, Humulus lupulus
[1] = tested on: HlUGT127; test: Monoterpene glycosylation by recombinant HlUGT127 (UDP-glucose, LC-MS); conditions: 2 mM UDP-glucose, 0.2 mM sugar acceptor substrate, pH 7.5, 30° C., 1 hour
Protocol: (§1) Next, these proteins were used to test their reactivity with monoterpenes by LC-MS analysis. Standard enzyme reaction conditions are as follows. A reaction solution (2 mM UDP-glucose, 0.2 mM sugar acceptor substrate, 100 mM potassium phosphate buffer (pH 7.5), 25 μl purified […] enzyme solution) was prepared in a volume of 50 μl with distilled water and reacted at 30° C. for 1 hour. The enzyme reaction solution (5 μl) was analyzed by LC-MS under the following conditions. LC Conditions Column: CAPCELL PAK C18-UG120 (2.0 mm I.D.×150 mm) Mobile phase: A: water (containing 0.05% formic acid), B: acetonitrile Gradient: linear concentration gradient of B from 15% to 90% over 15 minutes Flow rate: 0.2 ml per minute Column oven: 40° C. MS Conditions ESI (negative mode) SIM mode: (m/z 315, 338, 361, 363, 331, 354, 377, 429, etc.) The above LC-MS analysis was conducted for each of HlUGT119, HlUGT127, HlUGT279 and HlUGT251.

[2] = tested on: HlUGT251; test: Monoterpene glycosylation by recombinant HlUGT251 (UDP-glucose, LC-MS); conditions: for monoglycosylation activity of HlUGT251 on the monoterpene: 2 mM UDP-glucose, 0.2 mM sugar acceptor substrate, pH 7.5, 30° C., 1 hour, LC-MS
Protocol: as §1

[3] = tested on: HlUGT119; test: Monoterpene glycosylation by recombinant HlUGT119 (UDP-glucose, LC-MS); conditions: 2 mM UDP-glucose, 0.2 mM sugar acceptor substrate, pH 7.5, 30° C., 1 hour
Protocol: as §1

[4] = tested on: HlUGT279; test: Monoterpene glycosylation by recombinant HlUGT279 (UDP-glucose, LC-MS); conditions: 2 mM UDP-glucose, 0.2 mM sugar acceptor substrate, pH 7.5, 30° C., 1 hour
Protocol: as §1

Molecule: CC(C)=CCC/C(C)=C/CO [geraniol, Geraniol]
monoglycosylation activity of HlUGT127 on the monoterpene [1]: monoglycosylation activity
monoglycosylation activity of HlUGT251 on the monoterpene [2]: monoglycosylation activity
monoglycosylation activity of HlUGT119 on the monoterpene [3]: monoglycosylation activity
monoglycosylation activity of HlUGT279 on the monoterpene [4]: monoglycosylation activity

Molecule: C=CC(C)(O)CCC=C(C)C (stereo not drawn) [linalool, Linalool]
monoglycosylation activity of HlUGT127 on the monoterpene [1]: monoglycosylation activity
monoglycosylation activity of HlUGT251 on the monoterpene [2]: monoglycosylation activity
monoglycosylation activity of HlUGT119 on the monoterpene [3]: monoglycosylation activity
monoglycosylation activity of HlUGT279 on the monoterpene [4]: monoglycosylation activity

amount of product compared with the other three enzymes ([2]; same reaction conditions, ascribed to extremely lower amount of expressed protein): smaller amount of product
B1: HlUGT251: Humulus lupulus monoterpene glycosyltransferase, amino acid sequence SEQ ID NO: 8, expressed as HisTag fusion in E. coli (protein, listed as Humulus lupulus)
chain: MGSISEMMKPHAVCVPFPAQGHVNPMMQLAKLLHSRGFHITYVNTEFNHRRLIRSRGPDSVKGLPDFQFETIPDGLPPSDRDATQEVPPLCDATRKNCLGPFKELLHKLRSCSEVPPVTCIITDGIMTFGIKAAREFGIPEVVFWTASACSFMGYLQYDELVRRGIVPFKDESFMLDGTLDTPIDWIPGIRDVRLRDLPSFLRVTSTDDIMFDFLGSQAKNCLTSSAIIFNTFRELELEVLDSISDMYPNIYTIGPLPMLNRHLPAESQVKSMSTSLWKEDSTCFQWLHKREPNSVVYVNYGSITTMTEDNFREFAWGLANSKHSFVWIVRPDVIMGSNSATVLPEEFFEEIKDRGLLANWCQQKEVLEHSSVGVFLTHCGWNSTVETVCAGVPVICWPFFADQQTNCHFACKTLGIGVEISPDVKREEVTGLVKEMMEGEKGEKMREKASYWKKKAAETTDIGGDSYHDFDKLIKSLGFDGRD
modifications: His tag
